Source: PMC8360061, “Search for the Active Ingredients from a 2‐Aminothiazole DMSO Stock Solution with Antimalarial Activity” (Chemmedchem, 2021)
“Also recorded” adds a separate entry of the source.

Columns and labels:
[1] = molecular target: T1, EcIspE (Escherichia coli, UniProt P62615); experiment: EcIspE enzymatic assay (coupled to PK/LDH); format: biochemical
T1 construct: made in house
Description: Another approach to address this issue is to perform the IspE assay with one or several orthologues of PfIspE. […] The IspE assay setup was identical for both Pf and EcIspE orthologs except for the target enzyme used. One of the setup requirements was that the enzymatic activity of the auxiliary enzymes PK/LDH exceeded the activity of the target enzyme IspE not less than a factor of ten.[10] We investigated, if the inhibition of the auxiliary enzymes may substantially influence the IC50 values obtained from the coupled IspE assay.
1.1 General Procedure for Enzymatic Assay
The cloning, expression and purification of Plasmodium falciparum[1] and Escherichia coli[2,3] and their subsequent assays followed the previously reported procedures .[1] In some specified cases, the tested compound was dissolved in methanol or acetonitrile for the assay .
(§1) Due to the nature of the study, some decomposition samples w ere only tested once and thus, for some formal standard error, […]
(§2) For the final purified compounds, replicates were measured and standard deviation was calculated at least from two replicates. […]
2.) Decomposition Study Procedure
All reagents and solvents were of commercial quality and used without further purification.
Low resolution mass analytics and purity controls were carried out using an Ultimate 3000-ISQ liquid-chromatography mass spectrometry (LCMS) system (Thermo Fisher […]

[2] = tested on: A549; experiment: Cytotoxicity assay A549; format: cell-based; details: Homo sapiens, old sample before becoming aware of the decomposition, read-out: %-inh. A549
Procedure: as §1, §2
(§3) 1.3 General Procedure for Cytotoxicity Assay
(§4) Cytotoxicity assays based on the human lung adenocarcinoma (A549), human embryonic kidney (Hek293) and human hepatocellular carcinoma (HepG2) cell lines were performed as described previously.[7] […]

[3] = tested on: HepG2; experiment: Cytotoxicity assay HepG2; format: cell-based; details: Homo sapiens, old sample before becoming aware of the decomposition, read-out: %-inh. HepG2
Procedure: as §1, §2, §3, §4

[4] = Decomposition study of stock solutions (HRMS, NMR); format: physicochemical
Procedure: Firstly, we performed a temperature‐dependent decomposition study of compound 1 at 10 mM concentration in DMSO at room temperature (RT), +4 °C and −20 °C (SI, Section 2.3). After seven days, 64 % of the sample stored at RT had decomposed (SI, Table S1). Besides visual inspection of the colour changes of the test sample (see Table 2), the decomposition was monitored by HRMS and NMR spectroscopy. […] Furthermore, all three samples were tested for their inhibitory activity against PfIspE after the incubation period. […] This fact correlated with the degree of chemical transformation of compound 1 (Table S1). In the IspE assay, the activity of the target enzyme is coupled to the oxidation of NADH (which can be followed spectrophotometrically at 340 nm) via a cascade of the auxiliary enzymes pyruvate kinase and lactate dehydrogenase (PK/LDH).[10] Therefore, we next confirmed, whether the effects observed in the IspE assay are due to inhibition of the target enzyme or of the auxiliary enzymes. Three samples of compound 1 were tested in PK/LDH assay (Table 2).
Secondly, we analysed if spontaneous chemical transformation of compound 1 may depend on the solvent used for the preparation of its stock solutions. We incubated 10 mM stock preparations of compound 1 in DMSO, acetonitrile (ACN) and methanol (MeOH) at RT. Aliquots were taken during 16 days of incubation and tested against the enzyme PfIspE (Table 3). […] For further decomposition incubation of compound 1, only DMSO was used as solvent.
2.3 Temperature-Dependent Study
Compound 1 was dissolved in DMSO to afford 10 mM stock solution, in the scale of 3.65 mg in 1 mL. Three aliquots were prepared and one each was stored inside a light -protecting box at different temperatures: room temperature (RT), +4 °C and –20 °C. Samples were only taken to RT for the minimum time required for sampling. Samples were further d iluted with acetonitrile to 10 µM (1:1000) for HRMS analysis. For calibration, a fresh stock solution of the compound 1 was prepared shortly before the analysis. The concentration range used for the calibration was from 10 µM to 20 nM, including 10 samples with 1:1 dilutions starting from the highest concentration (Appendix I). In all of the calibration points and samples, diphenhydramine ( m/z: 256.16907 [M+H]+) was included as an internal standard at the concentration of 500 nM. The results were analysed using Thermo Xcalibur Quan Browser. Similarly, three NMR samples of compound 1 were prepared in DMSO-d6 and each stored at different temperatures; RT, +4 °C and –20 °C, (Figure S8).
Table S1. Summary of the decomposition of compound 1 at different temperatures with the corresponding enzymatic activities measured after three months.
The Percentage of Compound 1 Left After Degradation after 3 months of decomposition[b] Temperature Day 7 1 month 2 months PfIspE IC50 EcIspE IC50 PK/LDH IC50 […]
[a] [b] Errors given as formal standard error. n.d.: not determined, PK/LDH: pyruvate kinase and lactate dehydrogenase, Pf: Plasmodium falciparum, Ec: Escherichia coli.
Figure S7. The HRMS recorded for the samples submitted to the enzyme assay after 3 months of decomposition with the corresponding colour differences. […]
2.4 Solvent-Dependent Study
As in the Section 2.3, stock solutions of compound 1 were prepared in DMSO, ACN and MeOH and stored at RT for 16 days in a box protected from light . Samples were collected during this time and the enzymatic activity was analysed for them as in main text, Table […]
compound 1 for ACN or MeOH was detectible (Figures S11–12). Similarly, the old samples of compound 1 used for enzyme and cell assays were analysed with HRMS (Figure S13). Additionally, NMR sample in MeOH was prepared and measured over time while stored at RT. As a follow-up experiment, the stability of compound 1 was determined for its 10 mM stock solution in Tris-HCl (pH 7.6) with and without 5% DMSO and Cyrene™ with HRMS (Figure S16–18). […]

T1 sequence (P62615 whole entry): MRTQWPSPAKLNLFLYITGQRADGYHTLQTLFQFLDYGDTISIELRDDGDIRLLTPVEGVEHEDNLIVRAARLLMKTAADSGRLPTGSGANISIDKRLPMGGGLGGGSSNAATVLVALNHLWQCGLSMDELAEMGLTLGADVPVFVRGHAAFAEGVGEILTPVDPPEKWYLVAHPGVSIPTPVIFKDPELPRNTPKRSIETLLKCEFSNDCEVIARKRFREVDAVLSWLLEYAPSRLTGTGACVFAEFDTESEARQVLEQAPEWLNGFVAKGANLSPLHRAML

CCn1c(C)cc(-c2csc(Nc3ccccc3C(F)(F)F)n2)c1C [Compound 1]
IC50 ([1]; 10 mM DMSO stock stored at +4 °C, measured after 3 months): 71 ± 10 µM
IC50 ([1]; 10 mM DMSO stock stored at RT, measured after 3 months): 101 ± 14 µM
IC50 ([1]; 10 mM DMSO stock stored at −20 °C, measured after 3 months): > 500 µM
IC50 ([1]; analytical sample, DMSO at RT, 0 days of incubation, dissolved in methanol shortly before the assay): > 500 µM
IC50 ([1]; analytical sample, DMSO at RT, 1 day of incubation, dissolved in methanol shortly before the assay): > 500 µM
IC50 ([1]; analytical sample, DMSO at RT, 2 days of incubation, dissolved in methanol shortly before the assay): > 500 µM
IC50 ([1]; analytical sample, DMSO at RT, 3 days of incubation, dissolved in methanol shortly before the assay): 397 µM
IC50 ([1]; analytical sample, DMSO at RT, 4 days of incubation, dissolved in methanol shortly before the assay): 75 ± 16 µM
IC50 ([1]; fractions of second purification, dissolved in ACN): > 1370 µM
IC50 ([1]; fractions of second purification, dissolved in MeOH): > 1370 µM
IC50 ([1]; old decomposed sample, control run at the same time as the temperature study): 32 ± 6 µM
inhibition at 100 µM [2]: -0.3%
inhibition at 100 µM [3]: 44%
Degradation after 2 months ([4]; 10 mM in DMSO, +4 °C): 79%
Percentage of Compound 1 Left After Degradation ([4]; 10 mM in DMSO, +4 °C, 1 month): 48%
Percentage of Compound 1 Left After Degradation ([4]; 10 mM in DMSO, +4 °C, 2 months): 21%
Percentage of Compound 1 Left After Degradation ([4]; 10 mM in DMSO, +4 °C, Day 7): 96%
Degradation after 2 months ([4]; 10 mM in DMSO, RT): 100%
decomposition after two weeks (in words) ([4]; 10 mM in DMSO, RT): fully decomposed
share of sample decomposed after seven days ([4]; 10 mM in DMSO, RT): 64%
Percentage of Compound 1 Left After Degradation ([4]; 10 mM in DMSO, RT, 1 month): 1%
Percentage of Compound 1 Left After Degradation ([4]; 10 mM in DMSO, RT, 2 months): 0%
Percentage of Compound 1 Left After Degradation ([4]; 10 mM in DMSO, RT, Day 7): 36%
Degradation after 2 months ([4]; 10 mM in DMSO, −20 °C): 18%
Percentage of Compound 1 Left After Degradation ([4]; 10 mM in DMSO, −20 °C, 1 month): 91%
Percentage of Compound 1 Left After Degradation ([4]; 10 mM in DMSO, −20 °C, 2 months): 82%
Percentage of Compound 1 Left After Degradation ([4]; 10 mM in DMSO, −20 °C, Day 7): 96%
decomposition at −20 °C (in words) ([4]; 10 mM in DMSO, −20 °C, up to two months): decomposition hardly occurs; also recorded: only minimal decomposition
decomposition in Cyrene (HRMS, in words) ([4]; 10 mM stock in Cyrene, RT, after one day): clear decomposition
decomposition in ACN (HRMS, in words) ([4]; stock solution in ACN at RT for 16 days): no decomposition
decomposition in MeOH (HRMS, in words) ([4]; stock solution in MeOH at RT for 16 days): no decomposition
